# According to paper PMC3664642, “A Peptide against Soluble Guanylyl Cyclase α1: A New Approach to Treating Prostate Cancer” (PLoS ONE, 2013):
# “Also recorded” adds a separate entry of the source. Where no end group is shown, it is not given here.
# Experiments:
# [1] = tested on: LNCaP cells; test: Proliferation/cytotoxicity, LNCaP cells (MTT); assay type: cell-based; settings: different concentrations, averages of three independent experiments
# Description: (§1) LNCaP, C81, PC-3 and Cos cells were grown as previously described. CWR-22Rv1 cells were cultured in RMPI-1640 medium with 10% FBS and 50 µg/ml Gentamicin (Gibco). Control siRNA, sGCα1 siRNA and AKT siRNA (Dharmacon) at 50 nM final concentration was transfected into cells using Lipofectamine siMAX (Invitrogen).
# (§2) For proliferation, cells were grown in medium containing 2% FBS extracted with dextran-coated charcoal (DCC). 48 hours later, ethanol or 1 nM R1881 was added to the cells followed by peptide treatment. The MTT assay (Sigma) was used as before to determine cell number. For apoptosis, 5000 cells were seeded in 96-well plates and treated with Vehicle (DMSO), Peptide A-8R (25 µM), Etoposide (50 µM) (Sigma) at different time points. The Caspase (3/7) activity was measured using Apo-ONE Homogeneous Caspase-3/7 assay kit (Promega). PARP cleavage was also used to measure apoptosis, and is described below.
# (A) Four peptides were designed targeting sGCα1, with each peptide containing eight arginines at the C-terminus for membrane translocation. (B) LNCaP cells were grown in 10% serum under different concentrations of the four peptides, as shown. Cell number was measured after 0–4 days of incubation. Data points represent averages of three independent experiments plus standard deviations. Asterisks indicate statistical significance (P<0.0002) of Peptide A activity, relative to Vehicle.
# Figure 2 Peptide A-8R interacts with sGCα1 in prostate cancer cells. (A) LNCaP cells were treated with 25 µM Biotin-labeled Peptide A-8R for 2 hrs and subjected to immunocytochemistry using anti-sGCα1 or anti-Biotin antibody to measure subcellular co-localization of endogenous sGCα1 and Peptide A-8R. DAPI was used to stain nuclei. (B) LNCaP cytosolic extracts were incubated with Peptide A-8R-Biotin and subjected to purification using streptavidin-agarose. This pull-down experiment was repeated with competing excess amount of unlabeled Peptide C-8R or Peptide A-8R. […] Co-purified Peptide A-8R-FITC was quantified by measuring fluorescence signal emission. […] Cell number was measured after 0–48 hrs of incubation. […]
# [2] = tested on: PC-3 cells; test: Proliferation/cytotoxicity, sGCα1-deficient PC-3 cells (MTT); assay type: cell-based; settings: different concentrations, Fig. 3E
# Description: as §1, §2
# (§3) Vehicle or different concentrations of Peptide A-8R or C-8R, as shown, was added to (A) hormone-dependent LNCaP cells grown in 2% serum without or with 1 nM R1881, (C) castration-resistant C81 or CWR-22Rv1 cells, or (E) sGCα1-deficient PC-3 or Cos cells. Cell number was measured after various days of incubation. Data points represent averages of three independent experiments plus standard deviations. […]
# [3] = tested on: Cos cells; test: Proliferation/cytotoxicity, sGCα1-deficient Cos cells (MTT); assay type: cell-based, African green monkey; settings: different concentrations, Fig. 3E
# Description: as §1, §2, §3
# [4] = tested on: AKT; test: Western blot of AKT in xenograft tumors; assay type: in vivo; settings: mouse xenograft tumors; Fig. S4B
# Description: Western blotting was performed as described using primary antibodies against sGCα1 (Cayman Chemical), pan-Akt (Cell Signaling Technology), phospho-AKT (S473, T308) (Cell Signaling Technology), phospho-PDK1 (Cell Signaling Technology), phospho-GSK-3β (Cell Signaling Technology), PARP (Cell Signaling Technology), and β-Actin (Abcam).
# 2×10^6 C81 cells in 50 µL of growth medium was mixed with 50 µL Matrigel (BD Biosciences) and injected into both flanks of 4–6-week old SCID male mice. When tumor sizes reached 200 mm^3, 50 µL of Peptide A-8R (40 mg Peptide A-8R/Kg of animal) or Vehicle (DMSO) was directly injected into the tumors every other day. Injections were stopped after 5 times and tumors were measured every 3 days. Mice were euthanized after 3 weeks and tumors were excised. All procedures were approved by the University of Toledo Division of Lab Animal Recourses (DLAR). Protein extracts were prepared by boiling the tumor tissue in 3× SDS buffer, and evaluated by SDS-PAGE gel.
# Supplementary file pone.0064189.s004.tif: Figure S4 Peptide A-mediated down-regulation of AKT is not involved in its cytotoxicity to prostate cancer cells. […] Cell number was measured after 0–6 days of incubation. […]
# [5] = tested on: Caspase 3/7 activity in PC-3 cells; test: Caspase 3/7 assay, PC-3 cells; assay type: cell-based; settings: 10 µM; 0–24 hrs; Fig. 5B
# Description: as §2
# (§4) Figure 5 Peptide A-8R induces apoptosis of prostate cancer cells. (A) LNCaP, (B) PC-3, or (C) Cos cells were treated with Vehicle, Peptide A-8R (10 µM), or Etoposide (20 µM) for 0–24 hrs and subjected to a Caspase assay to measure apoptosis. Bar graphs represent averages of three independent experiments plus standard deviations. All activities are relative to the first condition, and this activity was set to 1. Asterisks indicate statistical significance (P<0.005). (D) LNCaP cells were treated with Vehicle, Peptide C-8R, Peptide A-8R, or Etoposide (each drug at 50 µM) for 8 hrs and monitored for apoptosis by measuring PARP cleavage using Western blotting. Note that β-actin was used to control for protein loading.
# [6] = tested on: Caspase 3/7 activity in Cos cells; test: Caspase 3/7 assay, Cos cells; assay type: cell-based, African green monkey; settings: 10 µM; 0–24 hrs; Fig. 5C
# Description: as §2, §4
# [7] = tested on: prostate cancer cells; test: Cytotoxicity against prostate cancer cells (summary); assay type: cell-based; settings: hormone-dependent and hormone-refractory prostate cancer cells
# Description: as §2
substance,measurement,setting,value
Ac-TFCKAFPFHIIRRRRRRRR [Peptide A-8R],"cytotoxic activity / cell number, LNCaP","[1]; 10% serum, 0–4 days, Fig. 1B, P<0.0002 Peptide A vs Vehicle","strong, dose-dependent, cytotoxic activity, killing nearly all cells by day 4; also recorded: strongly cytotoxic to prostate cancer cells"
same,cytotoxic effect with or without 8-arginine sequence,"[1]; LNCaP, MTT, Fig. S2, P<0.005",strong cytotoxic effect
same,effect on PC-3 cells,[2],little to no effect
same,effect on Cos cells,[3],little to no effect
same,effect on AKT protein level in tumors,[4],same negative effect on AKT protein levels; also recorded: significantly reduces AKT protein levels
same,"induction of apoptosis, PC-3",[5],failed to induce apoptosis
same,"induction of apoptosis, Cos",[6],failed to induce apoptosis
same,cytotoxic activity against prostate cancer cells (summary),[7],"strongly cytotoxic to prostate cancer cells, rapidly inducing apoptosis; also recorded: strongly cytotoxic to sGCα1-expressing prostate cancer cells, but not to sGCα1-deficient cells; also recorded: showed the strongest activity"
